Test results as given in PubChem BioAssay (NCI).
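48-hour exposure; five concentrations; linearly interpolated endpoints. GI50 marks 50% less growth. The concentration for full growth arrest is given as TGI.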

Legend:
Assay in all cases: growth of human tumour cells (NCI), 48 h
SW-620 colon = test system: SW-620 colon
SN12C renal = test system: SN12C renal
MDA-MB-231 breast = test system: MDA-MB-231 breast
A549 NSCLC = test system: A549 NSCLC
SR leukemia = test system: SR leukemia
786-0 renal = test system: 786-0 renal
NCI-H460 lung = test system: NCI-H460 lung
EKVX NSCLC = test system: EKVX NSCLC
RPMI-8226 leukemia = test system: RPMI-8226 leukemia
RXF 393 renal = test system: RXF 393 renal
HT29 colon = test system: HT29 colon
HS 578T breast = test system: HS 578T breast
SF-295 CNS = test system: SF-295 CNS
M14 melanoma = test system: M14 melanoma
HOP-62 NSCLC = test system: HOP-62 NSCLC
KM12 colon = test system: KM12 colon
NCI-H226 lung = test system: NCI-H226 lung
PC-3 prostate = test system: PC-3 prostate
CAKI-1 renal = test system: CAKI-1 renal
SNB-19 CNS = test system: SNB-19 CNS
IGROV1 ovarian = test system: IGROV1 ovarian
T-47D breast = test system: T-47D breast
MALME-3M melanoma = test system: MALME-3M melanoma
MDA-MB-435 = test system: MDA-MB-435
SK-OV-3 ovarian = test system: SK-OV-3 ovarian
OVCAR-8 ovarian = test system: OVCAR-8 ovarian
SF-268 CNS = test system: SF-268 CNS
SF-539 CNS = test system: SF-539 CNS
DU-145 prostate = test system: DU-145 prostate
HL-60(TB) leukemia = test system: HL-60(TB) leukemia
NCI/ADR-RES ovarian = test system: NCI/ADR-RES ovarian
UACC-257 melanoma = test system: UACC-257 melanoma
SK-MEL-28 melanoma = test system: SK-MEL-28 melanoma
OVCAR-4 ovarian = test system: OVCAR-4 ovarian
HCC-2998 colon = test system: HCC-2998 colon
U251 CNS = test system: U251 CNS
HCT-15 colon = test system: HCT-15 colon
A498 renal = test system: A498 renal
NCI-H23 lung = test system: NCI-H23 lung
SK-MEL-5 melanoma = test system: SK-MEL-5 melanoma
BT-549 breast = test system: BT-549 breast
K-562 leukemia = test system: K-562 leukemia
HOP-92 NSCLC = test system: HOP-92 NSCLC
TK-10 renal = test system: TK-10 renal
MCF7 breast = test system: MCF7 breast
CCRF-CEM leukemia = test system: CCRF-CEM leukemia
ACHN renal = test system: ACHN renal
MOLT-4 leukemia = test system: MOLT-4 leukemia
COLO 205 colon = test system: COLO 205 colon
LOX IMVI melanoma = test system: LOX IMVI melanoma
UACC-62 melanoma = test system: UACC-62 melanoma
NCI-H522 lung = test system: NCI-H522 lung
UO-31 renal = test system: UO-31 renal
SK-MEL-2 melanoma = test system: SK-MEL-2 melanoma
HCT-116 colon = test system: HCT-116 colon
OVCAR-3 ovarian = test system: OVCAR-3 ovarian
OVCAR-5 ovarian = test system: OVCAR-5 ovarian

In the case of `COc1ccc2c(c1)C(=Nc1ccc(F)c(Cl)c1)c1c-2c(Nc2ccc(F)c(Cl)c2)nc2ccccc12`, the GI50 (SW-620 colon) is reported as over 100 µM, the TGI (SW-620 colon) is reported as over 100 µM and the GI50 (SN12C renal) is reported as 33.8 µM. The TGI (SN12C renal) was over 67 µM, the GI50 (MDA-MB-231 breast) was 23 µM and the TGI (MDA-MB-231 breast) was over 61.3 µM. The GI50 (A549 NSCLC) was over 74 µM, the TGI (A549 NSCLC) was over 100 µM and the GI50 (SR leukemia) was 0.0122 µM. For the same molecule, the TGI (SR leukemia) was 0.0862 µM, the GI50 (786-0 renal) was 14.9 µM and the TGI (786-0 renal) was 42.8 µM. For the same molecule, the GI50 (NCI-H460 lung) was over 100 µM, the TGI (NCI-H460 lung) was over 100 µM and the GI50 (EKVX NSCLC) was 89.2 µM. For the same molecule, the TGI (EKVX NSCLC) was over 100 µM, the GI50 (RPMI-8226 leukemia) was over 60.4 µM and the TGI (RPMI-8226 leukemia) was over 100 µM. For the same molecule, the GI50 (RXF 393 renal) was 0.579 µM, the TGI (RXF 393 renal) was 37.1 µM and the GI50 (HT29 colon) was over 100 µM. For the same molecule, the TGI (HT29 colon) was over 100 µM, the GI50 (HS 578T breast) was 35.3 µM and the TGI (HS 578T breast) was 98.5 µM. The GI50 (SF-295 CNS) was 33 µM, the TGI (SF-295 CNS) was over 100 µM and the GI50 (M14 melanoma) was 47.1 µM. The TGI (M14 melanoma) was over 100 µM, the GI50 (HOP-62 NSCLC) was 13.7 µM and the TGI (HOP-62 NSCLC) was 32.4 µM. For the same molecule, the GI50 (KM12 colon) was over 100 µM, the TGI (KM12 colon) was over 100 µM and the GI50 (NCI-H226 lung) was 39 µM. For the same molecule, the TGI (NCI-H226 lung) was over 77.6 µM, the GI50 (PC-3 prostate) was over 94.6 µM and the TGI (PC-3 prostate) was over 100 µM. For the same molecule, the GI50 (CAKI-1 renal) was over 65.8 µM, the TGI (CAKI-1 renal) was over 100 µM and the GI50 (SNB-19 CNS) was 44.8 µM. It also gave a TGI (SNB-19 CNS) of over 100 µM, a GI50 (IGROV1 ovarian) of 30.1 µM and a TGI (IGROV1 ovarian) of over 100 µM. The GI50 (T-47D breast) was over 100 µM, the TGI (T-47D breast) was over 100 µM and the GI50 (MALME-3M melanoma) was over 100 µM. The TGI (MALME-3M melanoma) was over 100 µM, the GI50 (MDA-MB-435) was over 100 µM and the TGI (MDA-MB-435) was over 100 µM. For the same molecule, the GI50 (SK-OV-3 ovarian) was 18.8 µM, the TGI (SK-OV-3 ovarian) was 98.6 µM and the GI50 (OVCAR-8 ovarian) was 22.6 µM. The TGI (OVCAR-8 ovarian) was over 58.5 µM, the GI50 (SF-268 CNS) was 29.7 µM and the TGI (SF-268 CNS) was over 100 µM. It also gave a GI50 (SF-539 CNS) of 27 µM, a TGI (SF-539 CNS) of over 74.9 µM and a GI50 (DU-145 prostate) of over 100 µM. The TGI (DU-145 prostate) was over 100 µM, the GI50 (HL-60(TB) leukemia) was 14.8 µM and the TGI (HL-60(TB) leukemia) was 33.1 µM. It also gave a GI50 (NCI/ADR-RES ovarian) of 29.6 µM, a TGI (NCI/ADR-RES ovarian) of over 72.9 µM and a GI50 (UACC-257 melanoma) of over 60.6 µM. The TGI (UACC-257 melanoma) was over 100 µM, the GI50 (SK-MEL-28 melanoma) was over 100 µM and the TGI (SK-MEL-28 melanoma) was over 100 µM. The GI50 (OVCAR-4 ovarian) was 24.8 µM, the TGI (OVCAR-4 ovarian) was over 75.7 µM and the GI50 (HCC-2998 colon) was over 100 µM. The TGI (HCC-2998 colon) was over 100 µM, the GI50 (U251 CNS) was 18.8 µM and the TGI (U251 CNS) was 43.8 µM. It also gave a GI50 (HCT-15 colon) of over 71.3 µM, a TGI (HCT-15 colon) of over 100 µM and a GI50 (A498 renal) of 28.1 µM. The TGI (A498 renal) was 86.8 µM, the GI50 (NCI-H23 lung) was 19.9 µM and the TGI (NCI-H23 lung) was 58 µM. It also gave a GI50 (SK-MEL-5 melanoma) of over 100 µM, a TGI (SK-MEL-5 melanoma) of over 100 µM and a GI50 (BT-549 breast) of 23.4 µM. For the same molecule, the TGI (BT-549 breast) was over 74.4 µM, the GI50 (K-562 leukemia) was 4.19 µM and the TGI (K-562 leukemia) was 37 µM. It also gave a GI50 (HOP-92 NSCLC) of 33.8 µM, a TGI (HOP-92 NSCLC) of over 100 µM and a GI50 (TK-10 renal) of 34.5 µM. The TGI (TK-10 renal) was over 80 µM, the GI50 (MCF7 breast) was 56.2 µM and the TGI (MCF7 breast) was over 100 µM. For the same molecule, the GI50 (CCRF-CEM leukemia) was 0.804 µM, the TGI (CCRF-CEM leukemia) was 3.99 µM and the GI50 (ACHN renal) was 24.1 µM. For the same molecule, the TGI (ACHN renal) was over 70.8 µM, the GI50 (MOLT-4 leukemia) was 21.2 µM and the TGI (MOLT-4 leukemia) was 41.3 µM. It also gave a GI50 (COLO 205 colon) of over 100 µM, a TGI (COLO 205 colon) of over 100 µM and a GI50 (LOX IMVI melanoma) of 51.8 µM. The TGI (LOX IMVI melanoma) was over 100 µM, the GI50 (UACC-62 melanoma) was 22.3 µM and the TGI (UACC-62 melanoma) was over 70.5 µM. It also gave a GI50 (NCI-H522 lung) of 44.3 µM, a TGI (NCI-H522 lung) of over 100 µM and a GI50 (UO-31 renal) of over 100 µM. For the same molecule, the TGI (UO-31 renal) was over 100 µM, the GI50 (SK-MEL-2 melanoma) was 23.6 µM and the TGI (SK-MEL-2 melanoma) was over 71.8 µM. For the same molecule, the GI50 (HCT-116 colon) was 27.8 µM, the TGI (HCT-116 colon) was over 100 µM and the GI50 (OVCAR-3 ovarian) was 42.7 µM. The TGI (OVCAR-3 ovarian) was over 100 µM, the GI50 (OVCAR-5 ovarian) was over 76.6 µM and the TGI (OVCAR-5 ovarian) was over 100 µM.
